# Test system: stress ulcer
# Assay: Stress ulcer (restraint and water immersion)
# Format: in vivo, male Wistar rats
# Details: Rattus norvegicus, po, 7 h, 300 mg/kg, 0.5% CMC suspension, read-out: Inhibitory ratio of stress ulcer
# Description: After male Wistar rats weighing about 170 g was fasted for 24 hours, the rats were restrained in a stress cage and dipped in water bath at 23° C. till chest of the animals. After 7 hours, the rats were killed and the stomach was isolated. Into the isolated stomach 10% formalin (8 ml) was poured and settled. The stomach was cut open at the greater curvature, and the length of each ulcer on the membrane was measured. Sum of the length of all ulcers was shown as ulcer index (UI). The test compound was orally administered to the rats before restraint in a stress cage in a dose of 300 mg/kg in the form of 0.5% CMC suspension in case of test compounds 3, 4, 6, 15 and 27 and in a concentration of 1×10^-3 mole in case of other test compounds. As a control, only the solvent (CMC solution) was administered likewise. The inhibitory ratio (%) of stress ulcer of the test compounds was calculated by the following equation: [formula]
# (§1) In the table, the inhibitory ratio (%) was evaluated as follows: […]
row,Compound,inhibition in vivo at 300 mg/kg [%]
1,"Cn1nnnc1SCCCSC1CCCCC1 [Test compound 3, 1-Methyl-5-(3-cyclohexylthiopropyl)thio-1,2,3,4-tetrazole]",> 60
2,Cc1nnc(SCCCSc2nnnn2C)o1 [compound 4],> 60

# Same assay, conditions: Rattus norvegicus, po, 7 h, concentration of 1×10^-3 mole, read-out: Inhibitory ratio of stress ulcer
row,Compound,inhibition in vivo [%]
1,"Cn1nnnc1SCCCCCSc1nnnn1C [Test compound 5, 1-Methyl-5-[5-(1-methyl-1,2,3,4-tetrazol-5-yl)thiopentyl]thio-1,2,3,4-tetrazole]",> 60
2,"CCSCCCSc1nnnn1C [Test compound 7, 1-Methyl-5-(3-ethylthiopropyl)thio-1,2,3,4-tetrazole]",> 60
3,"Cn1nnnc1SCCCCCCSc1nnnn1C [Test compound 36, 1-Methyl-5-[6-(1-methyl-1,2,3,4-tetrazol-5-yl)thiohexyl]thio-1,2,3,4-tetrazole]",> 60
4,"Cn1nnnc1SCCC[S+]([O-])c1ccccn1 (stereo not drawn) [Test compound 44, 3-(1-Methyl-1,2,3,4-tetrazol-5-yl)thiopropyl 2-pyridyl sulfoxide]",> 60
5,"Cn1nnnc1SCCCC[S+]([O-])c1nnnn1C (stereo not drawn) [Test compound 46, 4-(1-Methyl-1,2,3,4-tetrazol-5-yl)thiobutyl 1-methyl-1,2,3,4-tetrazol-5-yl sulfoxide]",> 60
6,"Cn1nnnc1SCCCC(=O)c1ccco1 [Test compound 55, 1-Methyl-5-[3-(2-furoyl)propyl]thio-1,2,3,4-tetrazole]",30 to 60
7,"Cn1nnnc1SCCCC(=O)Cc1ccccc1 [Test compound 57, 1-Methyl-5-(3-benzylcarbonylpropyl)thio-1,2,3,4-tetrazole]",> 60
8,"Cn1nnnc1SCCCC(=O)c1ccccn1 [Test compound 74, 1-Methyl-5-[3-(2-pyridyl)carbonylpropyl]thio-1,2,3,4-tetrazole]",> 60
9,"Cc1ncsc1C(=O)CCCSc1nnnn1C [Test compound 80, 1-Methyl-5-[3-(4-methyl-5-thiazolyl)carbonylpropyl]thio-1,2,3,4-tetrazole]",> 60
10,"CCN(CC)CCCSc1nnnn1C [Test compound 84, 1-Methyl-5-[3-(N,N-diethylamino)propyl]thio-1,2,3,4-tetrazole]",> 60
11,"Cn1nnnc1SCCCNC(=O)c1ccccc1 [Test compound 88, 1-Methyl-5-(3-benzoylaminopropyl)thio-1,2,3,4-tetrazole]",> 60
12,"CCN(CC)C(=O)CCCn1nnnc1C [Test compound 105, N,N-Diethyl-4-(5-methyl-1,2,3,4-tetrazol-1-yl)butyramide]",> 60
13,Cn1nnnc1SCCCSc1ccccn1 [compound 2],> 60

# Test system: not listed separately
# Assay: Acute toxicity (LD50, p.o.)
# Details: rat, in vivo; oral, male Wistar rats
# Description: The test compounds were orally administered to male Wistar rats, and the half lethal dose (LD50) was measured.
row,Compound,LD50 [mg/kg]
1,"CCSCCCSc1nnnn1C [Test compound 7, 1-Methyl-5-(3-ethylthiopropyl)thio-1,2,3,4-tetrazole]",> 500
2,"Cn1nnnc1SCCC[S+]([O-])c1ccccn1 (stereo not drawn) [Test compound 44, 3-(1-Methyl-1,2,3,4-tetrazol-5-yl)thiopropyl 2-pyridyl sulfoxide]",> 500
3,CC(=O)CSc1nnnn1C [Test compound 67],> 500
4,"CCN(CC)C(=O)CCCn1nnnc1C [Test compound 105, N,N-Diethyl-4-(5-methyl-1,2,3,4-tetrazol-1-yl)butyramide]",> 500
5,"CCN(C(=O)CCCn1nnnc1C)C1CCCCC1 [Test compound 106, N-Ethyl-N-cyclohexyl-4-(5-methyl-1,2,3,4-tetrazol-1-yl)butyramide]",> 500
6,Cc1nnc(SCCCSc2nnnn2C)o1 [compound 4],> 500

# Test system: indomethacin-induced ulcer
# Assay: Indomethacin-induced ulcer
# Format: in vivo, male Wistar rats
# Details: Rattus norvegicus, 5 h, oral, 30 minutes before indomethacin 20 mg/kg s.c., read-out: Inhibitory ratio of indomethacin-induced ulcer
# Description: After male Wistar rats weighing about 160 g was fasted for 24 hours, indomethacin was subcutaneously administered to the rats in a dose of 20 mg/kg in the form of a suspension in a mixture of 0.5% CMC and a small amount of Tween 80 (i.e. polyoxyethylene sorbitan monooleate). After 5 hours, the rats were killed and the stomach was isolated. Into the isolated stomach 10% formalin (8 ml) was poured and settled. The stomach was cut open at the greater curvature, and the length of each ulcer on the membrane was measured, based on which results the inhibitory ratio of the indomethacin-induced ulcer of the test compounds was calculated in the same manner as in Pharmacological Test 2. The test compound was orally administered to the rats in a dose of 100 mg/kg in the form of 0.5% CMC suspension 30 minutes before the administration of indomethacin.
# as §1
row,Compound,inhibition in vivo at 100 mg/kg [%]
1,"Cn1nnnc1SCCCSC1CCCCC1 [Test compound 3, 1-Methyl-5-(3-cyclohexylthiopropyl)thio-1,2,3,4-tetrazole]",30 to 60
2,"Cn1nnnc1SCCCCCSc1nnnn1C [Test compound 5, 1-Methyl-5-[5-(1-methyl-1,2,3,4-tetrazol-5-yl)thiopentyl]thio-1,2,3,4-tetrazole]",> 60
3,"CC(CSc1nnnn1C)CSc1nnnn1C [Test compound 9, 1-Methyl-5-[2-methyl-3-(1-methyl-1,2,3,4-tetrazol-5-yl)thiopropyl]thio-1,2,3,4-tetrazole]",> 60
4,"Cn1nnnc1SCCCC(=O)c1ccccc1 [Test compound 53, 1-Methyl-5-(3-benzoylpropyl)thio-1,2,3,4-tetrazole]",> 60
5,CC(=O)CSc1nnnn1C [Test compound 67],> 60
6,"CCN(CC)CCCSc1nnnn1C [Test compound 84, 1-Methyl-5-[3-(N,N-diethylamino)propyl]thio-1,2,3,4-tetrazole]",> 60
7,"CCN(CC)C(=O)CCCn1nnnc1C [Test compound 105, N,N-Diethyl-4-(5-methyl-1,2,3,4-tetrazol-1-yl)butyramide]",30 to 60
8,"CCN(C(=O)CCCn1nnnc1C)C1CCCCC1 [Test compound 106, N-Ethyl-N-cyclohexyl-4-(5-methyl-1,2,3,4-tetrazol-1-yl)butyramide]",30 to 60
9,Cc1nnc(SCCCSc2nnnn2C)o1 [compound 4],> 60

# Test system: gastric juice secretion
# Assay: Shay rat pylorus ligation method (gastric juice secretion-inhibiting activity)
# Format: in vivo, male Wistar rats
# Details: 100 mg/kg, duodenal route, 4 hours after ligation
# Description: The pharmacological activities of the compounds (1) were tested by a Shay rat pylorus ligation method (cf. H. Shay et al: Gastroenterol., Vol. 5, page 43, 1945) which is the most popular method for testing of gastric juice secretion-inhibiting activity. The test was carried out by using male Wistar rats, weighing about 170 g and fasting for 24 hours.
# Test compounds were administered 30 minutes before the pylorus ligation in a dose of 100 mg/kg in subcutaneous route in case of test compounds 37, 38, 50, 51 and 52, in a dose of 200 mg/kg in subcutaneous route in case of test compounds 105 and 106 and in dose of 100 mg/kg in duodenal route in case of other test compounds, and the volume, total acidity and pepsin activity of the gastric juice were measured 4 hours after the ligation. As a control, a saline solution was administered instead of the test compound. The inhibitory ratio (%) of the test compounds were calculated when the inhibitory activities of the control were counted as zero (0).
# as §1
row,Compound,"Inhibitory ratio, volume of gastric juice"
1,"Cn1nnnc1SCCCCCCSc1nnnn1C [Test compound 36, 1-Methyl-5-[6-(1-methyl-1,2,3,4-tetrazol-5-yl)thiohexyl]thio-1,2,3,4-tetrazole]",+ +

# Same assay, conditions: Rattus norvegicus, 4 h, 100 mg/kg, duodenal route, 4 hours after ligation; read-out: Inhibitory ratio, pepsin activity
row,Compound,inhibition in vivo at 100 mg/kg [%]
1,"Cn1nnnc1SCCCC(=O)c1ccco1 [Test compound 55, 1-Methyl-5-[3-(2-furoyl)propyl]thio-1,2,3,4-tetrazole]",10 to 50
2,"Cn1nnnc1SCCCC(=O)Cc1ccccc1 [Test compound 57, 1-Methyl-5-(3-benzylcarbonylpropyl)thio-1,2,3,4-tetrazole]",10 to 50
3,"CCN(CC)CCCSc1nnnn1C [Test compound 84, 1-Methyl-5-[3-(N,N-diethylamino)propyl]thio-1,2,3,4-tetrazole]",10 to 50

# Same assay, conditions: Rattus norvegicus, 4 h, 100 mg/kg, duodenal route, 4 hours after ligation; read-out: Inhibitory ratio, total acidity
row,Compound,inhibition in vivo at 100 mg/kg [%]
1,"Cn1nnnc1SCCCC(=O)c1ccco1 [Test compound 55, 1-Methyl-5-[3-(2-furoyl)propyl]thio-1,2,3,4-tetrazole]",> 50
2,"Cn1nnnc1SCCCC(=O)Cc1ccccc1 [Test compound 57, 1-Methyl-5-(3-benzylcarbonylpropyl)thio-1,2,3,4-tetrazole]",10 to 50
3,"CCN(CC)CCCSc1nnnn1C [Test compound 84, 1-Methyl-5-[3-(N,N-diethylamino)propyl]thio-1,2,3,4-tetrazole]",10 to 50

# Same assay, conditions: Rattus norvegicus, 4 h, 100 mg/kg, duodenal route, 4 hours after ligation; read-out: Inhibitory ratio, volume of gastric juice
row,Compound,inhibition in vivo at 100 mg/kg [%]
1,"CCSCCCSc1nnnn1C [Test compound 7, 1-Methyl-5-(3-ethylthiopropyl)thio-1,2,3,4-tetrazole]",> 50
2,"Cn1nnnc1SCCC[S+]([O-])c1ccccn1 (stereo not drawn) [Test compound 44, 3-(1-Methyl-1,2,3,4-tetrazol-5-yl)thiopropyl 2-pyridyl sulfoxide]",> 50
3,"Cn1nnnc1SCCCC[S+]([O-])c1nnnn1C (stereo not drawn) [Test compound 46, 4-(1-Methyl-1,2,3,4-tetrazol-5-yl)thiobutyl 1-methyl-1,2,3,4-tetrazol-5-yl sulfoxide]",10 to 50
4,"Cn1nnnc1SCCCC(=O)c1ccco1 [Test compound 55, 1-Methyl-5-[3-(2-furoyl)propyl]thio-1,2,3,4-tetrazole]",> 50
5,"Cn1nnnc1SCCCC(=O)Cc1ccccc1 [Test compound 57, 1-Methyl-5-(3-benzylcarbonylpropyl)thio-1,2,3,4-tetrazole]",> 50
6,"Cn1nnnc1SCCCC(=O)c1ccccn1 [Test compound 74, 1-Methyl-5-[3-(2-pyridyl)carbonylpropyl]thio-1,2,3,4-tetrazole]",> 50
7,"Cc1ncsc1C(=O)CCCSc1nnnn1C [Test compound 80, 1-Methyl-5-[3-(4-methyl-5-thiazolyl)carbonylpropyl]thio-1,2,3,4-tetrazole]",> 50
8,"CCN(CC)CCCSc1nnnn1C [Test compound 84, 1-Methyl-5-[3-(N,N-diethylamino)propyl]thio-1,2,3,4-tetrazole]",10 to 50
9,"Cn1nnnc1SCCCNC(=O)c1ccccc1 [Test compound 88, 1-Methyl-5-(3-benzoylaminopropyl)thio-1,2,3,4-tetrazole]",> 50

# Same assay, conditions: Rattus norvegicus, 4 h, 100 mg/kg, duodenal route, 4 hours after ligation; star-marked compounds; read-out: Inhibitory ratio, pepsin activity
row,Compound,inhibition in vivo at 100 mg/kg [%]
1,"Cn1nnnc1SCCCCCSc1nnnn1C [Test compound 5, 1-Methyl-5-[5-(1-methyl-1,2,3,4-tetrazol-5-yl)thiopentyl]thio-1,2,3,4-tetrazole]",30 to 60
2,Cn1nnnc1SCCCSc1ccccn1 [compound 2],30 to 60
3,Cc1nnc(SCCCSc2nnnn2C)o1 [compound 4],30 to 60

# Same assay, conditions: Rattus norvegicus, 4 h, 100 mg/kg, duodenal route, 4 hours after ligation; star-marked compounds; read-out: Inhibitory ratio, total acidity
row,Compound,inhibition in vivo at 100 mg/kg [%]
1,"Cn1nnnc1SCCCSC1CCCCC1 [Test compound 3, 1-Methyl-5-(3-cyclohexylthiopropyl)thio-1,2,3,4-tetrazole]",> 60
2,"Cn1nnnc1SCCCCCSc1nnnn1C [Test compound 5, 1-Methyl-5-[5-(1-methyl-1,2,3,4-tetrazol-5-yl)thiopentyl]thio-1,2,3,4-tetrazole]",> 60
3,Cn1nnnc1SCCCSc1ccccn1 [compound 2],> 60
4,Cc1nnc(SCCCSc2nnnn2C)o1 [compound 4],> 60

# Same assay, conditions: Rattus norvegicus, 4 h, 100 mg/kg, duodenal route, 4 hours after ligation; star-marked compounds; read-out: Inhibitory ratio, volume of gastric juice
row,Compound,inhibition in vivo at 100 mg/kg [%]
1,"Cn1nnnc1SCCCSC1CCCCC1 [Test compound 3, 1-Methyl-5-(3-cyclohexylthiopropyl)thio-1,2,3,4-tetrazole]",> 60
2,"Cn1nnnc1SCCCCCSc1nnnn1C [Test compound 5, 1-Methyl-5-[5-(1-methyl-1,2,3,4-tetrazol-5-yl)thiopentyl]thio-1,2,3,4-tetrazole]",> 60
3,Cn1nnnc1SCCCSc1ccccn1 [compound 2],> 60
4,Cc1nnc(SCCCSc2nnnn2C)o1 [compound 4],> 60

# Same assay, conditions: Rattus norvegicus, sc, 4 h, 200 mg/kg, subcutaneous route, 4 hours after ligation; read-out: Inhibitory ratio, pepsin activity
row,Compound,inhibition in vivo at 200 mg/kg [%]
1,"CCN(CC)C(=O)CCCn1nnnc1C [Test compound 105, N,N-Diethyl-4-(5-methyl-1,2,3,4-tetrazol-1-yl)butyramide]",10 to 50
2,"CCN(C(=O)CCCn1nnnc1C)C1CCCCC1 [Test compound 106, N-Ethyl-N-cyclohexyl-4-(5-methyl-1,2,3,4-tetrazol-1-yl)butyramide]",10 to 50

# Same assay, conditions: Rattus norvegicus, sc, 4 h, 200 mg/kg, subcutaneous route, 4 hours after ligation; read-out: Inhibitory ratio, total acidity
row,Compound,inhibition in vivo at 200 mg/kg [%]
1,"CCN(CC)C(=O)CCCn1nnnc1C [Test compound 105, N,N-Diethyl-4-(5-methyl-1,2,3,4-tetrazol-1-yl)butyramide]",10 to 50
2,"CCN(C(=O)CCCn1nnnc1C)C1CCCCC1 [Test compound 106, N-Ethyl-N-cyclohexyl-4-(5-methyl-1,2,3,4-tetrazol-1-yl)butyramide]",10 to 50

# Same assay, conditions: Rattus norvegicus, sc, 4 h, 200 mg/kg, subcutaneous route, 4 hours after ligation; read-out: Inhibitory ratio, volume of gastric juice
row,Compound,inhibition in vivo at 200 mg/kg [%]
1,"CCN(CC)C(=O)CCCn1nnnc1C [Test compound 105, N,N-Diethyl-4-(5-methyl-1,2,3,4-tetrazol-1-yl)butyramide]",10 to 50
2,"CCN(C(=O)CCCn1nnnc1C)C1CCCCC1 [Test compound 106, N-Ethyl-N-cyclohexyl-4-(5-methyl-1,2,3,4-tetrazol-1-yl)butyramide]",10 to 50

# — patent publication US4372953A, “Tetrazole derivatives, and anti-ulcer composition containing the same” (Otsuka Pharmaceutical Company, Limited, priority 1980, dated 1983)
